Experimental data taken from the OPERA property sets (Mansouri et al. 2018).

Details: for log10 BCF / log10 biotransformation half-life (days): fish

COC(=O)C(C)(C)O
boiling point: 137 °C

Nc1ccccc1
boiling point: 184 °C | log10 Henry constant (atm·m³/mol): -5.69 | log10 Koc (L/kg): 1.6 | log10 vapour pressure (mmHg): -0.31 | melting point: -6 °C | ready biodegradability: readily biodegradable | log10 BCF: 0.21 | log10 biotransformation half-life (days): -0.78

Clc1cc(Cl)c(-c2ccccc2)c(Cl)c1Cl
log10 Henry constant (atm·m³/mol): -3.68

COc1ccccc1OCC(O)COC(N)=O (stereo unspecified)
melting point: 93 °C | ready biodegradability: not readily biodegradable

NCCCC(N)C(=O)O (stereo unspecified)
melting point: 140 °C

O=C(O)CCCCCC1NC(=O)CS1 (stereo unspecified)
melting point: 140 °C

CCC(COCCOc1c(I)cc(I)c(NC(C)=O)c1I)C(=O)O (stereo unspecified)
melting point: 130 °C

Clc1ccc(Br)cc1
boiling point: 196 °C | log10 vapour pressure (mmHg): -0.588 | melting point: 68 °C

CCOC(=O)c1cccc(N)c1
boiling point: 294 °C

CCCCCc1ccc(-c2ccccc2)cc1
log10 biotransformation half-life (days): 0.03

C=CC1CO1 (stereo unspecified)
boiling point: 68 °C | melting point: -135 °C

CC(C)COC(=O)C(C)Oc1ccc(Oc2ccc(Cl)cc2)cc1 (stereo unspecified)
melting point: 39.5 °C

CCOC(=O)c1ncn2c1CN(C)C(=O)c1cc(F)ccc1-2
melting point: 202 °C

C[Se][Se]C
boiling point: 156 °C | log10 vapour pressure (mmHg): 0.455

CC(C)Oc1ccccc1
boiling point: 177 °C | melting point: -33 °C

C[Si](C)(C)Cl
boiling point: 60 °C | log10 vapour pressure (mmHg): 2.37 | melting point: -40 °C

CC(=O)Oc1c[nH]c2ccccc12
melting point: 129 °C

COc1cccc(F)c1
boiling point: 159 °C | melting point: -35 °C

O=C(O)Cc1ccc([N+](=O)[O-])cc1
melting point: 154 °C

COc1cc(C(Cl)(Cl)Cl)cc(Cl)n1
log10 Koc (L/kg): 3.48

COC(=O)[C@H]1[C@H]2C[C@@H]3c4[nH]c5cc(OC)ccc5c4CCN3C[C@H]2C[C@@H](OC(=O)c2cc(OC)c(OC)c(OC)c2)[C@@H]1OC
melting point: 264 °C

CC1CCCCC1O (stereo unspecified)
boiling point: 164 °C | log10 Henry constant (atm·m³/mol): -5.12

C[Si](C)(Cl)CBr
boiling point: 131 °C

CC(Cl)C(C)(C)O (stereo unspecified)
boiling point: 142 °C

CC(O)CCCCO (stereo unspecified)
boiling point: 237 °C

CCc1c(Br)c(Br)c(Br)c(Br)c1Br
log10 Koc (L/kg): 4.92 | melting point: 138 °C | ready biodegradability: not readily biodegradable | log10 BCF: 2.52 | log10 biotransformation half-life (days): 0.02

CCOC(=O)CCC(=O)OC
boiling point: 208 °C

O=C(OCC(COC(=O)c1ccccc1)OC(=O)c1ccccc1)c1ccccc1
melting point: 76 °C

CCC(C)CC(C)N (stereo unspecified)
boiling point: 132 °C

c1ccc(Cn2cccc2)cc1
boiling point: 247 °C | melting point: 15 °C

CC(=O)Oc1ccc(C(c2ccc(OC(C)=O)cc2)c2ccccn2)cc1
melting point: 134 °C

C=COC(=O)C=C
boiling point: 91 °C

C=CCBr
boiling point: 70.1 °C | melting point: -119 °C

CC(C)CC(N)=O
boiling point: 226 °C | melting point: 137 °C

NNC(=O)c1ccccc1[N+](=O)[O-]
melting point: 124 °C

CC1=CC(=O)c2ccccc2C1=O
melting point: 107 °C

CC(C)CC1CCCCC1
boiling point: 171 °C | log10 vapour pressure (mmHg): 0.684 | melting point: -95 °C | log10 biotransformation half-life (days): 0.91

Cc1cccc2c1ccc1ccccc12
log10 Henry constant (atm·m³/mol): -4.31 | log10 biodegradation half-life (days): 1.36 | log10 vapour pressure (mmHg): -4.82 | melting point: 123 °C | log10 biotransformation half-life (days): 0.63

CC(C)(C)OO
log10 vapour pressure (mmHg): 0.738 | melting point: -8 °C | ready biodegradability: not readily biodegradable

CC1=C(C(=O)Nc2ccccc2)CCCO1
melting point: 110 °C

CCCCCCC(Cl)Cl
boiling point: 191 °C

COP(=S)(OC)Oc1ccc([N+](=O)[O-])cc1
log10 Henry constant (atm·m³/mol): -7 | log10 Koc (L/kg): 3 | log10 vapour pressure (mmHg): -5.46 | melting point: 35.5 °C | log10 BCF: 1.93 | log10 biotransformation half-life (days): 0.55

CC(=O)c1ccccc1
boiling point: 202 °C | log10 Henry constant (atm·m³/mol): -4.98 | log10 Koc (L/kg): 1.8 | log10 vapour pressure (mmHg): -0.401 | melting point: 20 °C | ready biodegradability: readily biodegradable

CCOCCOCCOCCO
boiling point: 256 °C | log10 vapour pressure (mmHg): -2 | melting point: -18.7 °C | ready biodegradability: readily biodegradable

CCCCCCF
boiling point: 91.5 °C | log10 vapour pressure (mmHg): 1.76 | melting point: -103 °C

CCN(CC)c1cccc(O)c1
boiling point: 276 °C | melting point: 78 °C

CCO[Si](CCCN)(OCC)OCC
boiling point: 217 °C | ready biodegradability: not readily biodegradable

CC[N+](C)(C)CCN(C)CC[N+](C)(C)CC.[Br-].[Br-]
melting point: 214 °C

C=CCSSCC=C
boiling point: 188 °C

O=C(c1ccccc1)c1ccncc1
boiling point: 315 °C | melting point: 72 °C

Cc1c(N=C=O)cccc1N=C=O
log10 vapour pressure (mmHg): -1.68 | melting point: 18.3 °C

C=CC=O
boiling point: 52.6 °C | log10 Henry constant (atm·m³/mol): -3.91 | log10 vapour pressure (mmHg): 2.44 | melting point: -87.7 °C | ready biodegradability: not readily biodegradable

CCCCCCCCCCCCCCCC/C=C/C1CC(=O)OC1=O (stereo unspecified)
ready biodegradability: not readily biodegradable

CC(C)(Cl)C(=O)O
melting point: 31 °C

CCC=C(C)CO
boiling point: 168 °C

CC(C)C(Cl)Cl
boiling point: 106 °C | log10 vapour pressure (mmHg): 1.6

COC(=O)C(C)N(C(=O)Cc1ccccc1)c1c(C)cccc1C (stereo unspecified)
log10 Koc (L/kg): 3.54 | log10 vapour pressure (mmHg): -5 | melting point: 79 °C

CCC(Br)Br
boiling point: 134 °C

CCC(=O)Cl
boiling point: 80 °C | melting point: -94 °C

CC(C)(C)C(O)(CCc1ccc(Cl)cc1)Cn1cncn1 (stereo unspecified)
log10 vapour pressure (mmHg): -7.89 | melting point: 102 °C | log10 biotransformation half-life (days): 0.77

CC=C(Br)Br
boiling point: 125 °C

CC/C=C\C/C=C\C/C=C\CCCCCCCC(=O)O
log10 vapour pressure (mmHg): -6.27 | melting point: -16.5 °C | ready biodegradability: readily biodegradable
